Laboratory results published in PubChem BioAssay (NCI).
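Values below derive from 48-hour exposures of cells grown in 96-well plates, with endpoints linearly interpolated between the two concentrations bracketing the appropriate inhibition level. Here, GI50 denotes the concentration required for 50% inhibition of growth. TGI: total growth inhibition.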

How the values were obtained:
Experiment in all cases: NCI anticancer screen, dose series, 48 h
UACC-257 melanoma = test system: UACC-257 melanoma
MDA-MB-435 = test system: MDA-MB-435
IGROV1 ovarian = test system: IGROV1 ovarian
LOX IMVI melanoma = test system: LOX IMVI melanoma
SK-MEL-5 melanoma = test system: SK-MEL-5 melanoma
CCRF-CEM leukemia = test system: CCRF-CEM leukemia
HL-60(TB) leukemia = test system: HL-60(TB) leukemia
NCI-H226 lung = test system: NCI-H226 lung
OVCAR-5 ovarian = test system: OVCAR-5 ovarian
NCI-H522 lung = test system: NCI-H522 lung
EKVX NSCLC = test system: EKVX NSCLC
U251 CNS = test system: U251 CNS
COLO 205 colon = test system: COLO 205 colon
OVCAR-3 ovarian = test system: OVCAR-3 ovarian
HOP-92 NSCLC = test system: HOP-92 NSCLC
SK-MEL-2 melanoma = test system: SK-MEL-2 melanoma
RXF 393 renal = test system: RXF 393 renal
MALME-3M melanoma = test system: MALME-3M melanoma
PC-3 prostate = test system: PC-3 prostate
SF-539 CNS = test system: SF-539 CNS
ACHN renal = test system: ACHN renal
HS 578T breast = test system: HS 578T breast
CAKI-1 renal = test system: CAKI-1 renal
NCI-H460 lung = test system: NCI-H460 lung
KM12 colon = test system: KM12 colon
SNB-75 CNS = test system: SNB-75 CNS
NCI-H23 lung = test system: NCI-H23 lung
NCI/ADR-RES ovarian = test system: NCI/ADR-RES ovarian
MCF7 breast = test system: MCF7 breast
SK-OV-3 ovarian = test system: SK-OV-3 ovarian
UACC-62 melanoma = test system: UACC-62 melanoma
MOLT-4 leukemia = test system: MOLT-4 leukemia
SNB-19 CNS = test system: SNB-19 CNS
SF-268 CNS = test system: SF-268 CNS
T-47D breast = test system: T-47D breast
BT-549 breast = test system: BT-549 breast
MDA-MB-231 breast = test system: MDA-MB-231 breast
OVCAR-4 ovarian = test system: OVCAR-4 ovarian
786-0 renal = test system: 786-0 renal
HCT-116 colon = test system: HCT-116 colon
DU-145 prostate = test system: DU-145 prostate
TK-10 renal = test system: TK-10 renal
HCT-15 colon = test system: HCT-15 colon
M14 melanoma = test system: M14 melanoma
RPMI-8226 leukemia = test system: RPMI-8226 leukemia
HCC-2998 colon = test system: HCC-2998 colon
UO-31 renal = test system: UO-31 renal
SF-295 CNS = test system: SF-295 CNS
K-562 leukemia = test system: K-562 leukemia
A498 renal = test system: A498 renal
SN12C renal = test system: SN12C renal
SR leukemia = test system: SR leukemia
SW-620 colon = test system: SW-620 colon
HT29 colon = test system: HT29 colon
OVCAR-8 ovarian = test system: OVCAR-8 ovarian
SK-MEL-28 melanoma = test system: SK-MEL-28 melanoma
A549 NSCLC = test system: A549 NSCLC
HOP-62 NSCLC = test system: HOP-62 NSCLC

`CCc1ccc(CCC(=O)Nc2ncc(Cc3ccccc3)s2)o1` showed a GI50 (UACC-257 melanoma) of over 100 µM, a TGI (UACC-257 melanoma) of over 100 µM and a GI50 (MDA-MB-435) of 0.301 µM. The TGI (MDA-MB-435) was 10.1 µM, the GI50 (IGROV1 ovarian) was 3.24 µM and the TGI (IGROV1 ovarian) was over 100 µM. It also gave a GI50 (LOX IMVI melanoma) of 6 µM, a TGI (LOX IMVI melanoma) of over 100 µM and a GI50 (SK-MEL-5 melanoma) of 1.16 µM. It also gave a TGI (SK-MEL-5 melanoma) of over 100 µM, a GI50 (CCRF-CEM leukemia) of 2.02 µM and a TGI (CCRF-CEM leukemia) of over 100 µM. For the same compound, the GI50 (HL-60(TB) leukemia) was 1.53 µM, the TGI (HL-60(TB) leukemia) was 4.38 µM and the GI50 (NCI-H226 lung) was 53.2 µM. It also gave a TGI (NCI-H226 lung) of over 100 µM, a GI50 (OVCAR-5 ovarian) of 3.93 µM and a TGI (OVCAR-5 ovarian) of over 100 µM. For the same compound, the GI50 (NCI-H522 lung) was 1.99 µM, the TGI (NCI-H522 lung) was over 100 µM and the GI50 (EKVX NSCLC) was 4.6 µM. It also gave a TGI (EKVX NSCLC) of over 100 µM, a GI50 (U251 CNS) of 3.06 µM and a TGI (U251 CNS) of over 100 µM. For the same compound, the GI50 (COLO 205 colon) was 2.28 µM, the TGI (COLO 205 colon) was over 100 µM and the GI50 (OVCAR-3 ovarian) was 2.67 µM. The TGI (OVCAR-3 ovarian) was 21.6 µM, the GI50 (HOP-92 NSCLC) was 18.3 µM and the TGI (HOP-92 NSCLC) was over 100 µM. It also gave a GI50 (SK-MEL-2 melanoma) of 5.42 µM, a TGI (SK-MEL-2 melanoma) of over 100 µM and a GI50 (RXF 393 renal) of 2.45 µM. It also gave a TGI (RXF 393 renal) of 9.13 µM, a GI50 (MALME-3M melanoma) of 18.3 µM and a TGI (MALME-3M melanoma) of over 100 µM. The GI50 (PC-3 prostate) was 2.74 µM, the TGI (PC-3 prostate) was over 100 µM and the GI50 (SF-539 CNS) was 1.67 µM. The TGI (SF-539 CNS) was 4.46 µM, the GI50 (ACHN renal) was 5.68 µM and the TGI (ACHN renal) was over 100 µM. The GI50 (HS 578T breast) was 2.29 µM, the TGI (HS 578T breast) was over 100 µM and the GI50 (CAKI-1 renal) was 2.94 µM. It also gave a TGI (CAKI-1 renal) of over 100 µM, a GI50 (NCI-H460 lung) of 3.06 µM and a TGI (NCI-H460 lung) of over 100 µM. For the same compound, the GI50 (KM12 colon) was 1.3 µM, the TGI (KM12 colon) was over 100 µM and the GI50 (SNB-75 CNS) was 1.24 µM. The TGI (SNB-75 CNS) was over 100 µM, the GI50 (NCI-H23 lung) was 4.47 µM and the TGI (NCI-H23 lung) was over 100 µM. The GI50 (NCI/ADR-RES ovarian) was 2.39 µM, the TGI (NCI/ADR-RES ovarian) was over 100 µM and the GI50 (MCF7 breast) was 0.515 µM. It also gave a TGI (MCF7 breast) of over 100 µM, a GI50 (SK-OV-3 ovarian) of 2.81 µM and a TGI (SK-OV-3 ovarian) of over 100 µM. It also gave a GI50 (UACC-62 melanoma) of 1.21 µM, a TGI (UACC-62 melanoma) of over 100 µM and a GI50 (MOLT-4 leukemia) of 2.43 µM. The TGI (MOLT-4 leukemia) was over 100 µM, the GI50 (SNB-19 CNS) was 3.92 µM and the TGI (SNB-19 CNS) was over 100 µM. The GI50 (SF-268 CNS) was 8.64 µM, the TGI (SF-268 CNS) was over 100 µM and the GI50 (T-47D breast) was 2.6 µM. For the same compound, the TGI (T-47D breast) was over 100 µM, the GI50 (BT-549 breast) was 52.2 µM and the TGI (BT-549 breast) was over 100 µM. The GI50 (MDA-MB-231 breast) was 2.52 µM, the TGI (MDA-MB-231 breast) was 22.2 µM and the GI50 (OVCAR-4 ovarian) was 27.8 µM. For the same compound, the TGI (OVCAR-4 ovarian) was over 100 µM, the GI50 (786-0 renal) was 6.95 µM and the TGI (786-0 renal) was over 100 µM. The GI50 (HCT-116 colon) was 1.05 µM, the TGI (HCT-116 colon) was over 100 µM and the GI50 (DU-145 prostate) was 4.51 µM. For the same compound, the TGI (DU-145 prostate) was over 100 µM, the GI50 (TK-10 renal) was 23 µM and the TGI (TK-10 renal) was over 100 µM. It also gave a GI50 (HCT-15 colon) of 0.544 µM, a TGI (HCT-15 colon) of over 100 µM and a GI50 (M14 melanoma) of 0.876 µM. The TGI (M14 melanoma) was over 100 µM, the GI50 (RPMI-8226 leukemia) was 2.61 µM and the TGI (RPMI-8226 leukemia) was over 100 µM. It also gave a GI50 (HCC-2998 colon) of 3.24 µM, a TGI (HCC-2998 colon) of over 100 µM and a GI50 (UO-31 renal) of 3.19 µM. The TGI (UO-31 renal) was over 100 µM, the GI50 (SF-295 CNS) was 3.29 µM and the TGI (SF-295 CNS) was over 100 µM. It also gave a GI50 (K-562 leukemia) of 0.529 µM, a TGI (K-562 leukemia) of over 100 µM and a GI50 (A498 renal) of 1.29 µM. For the same compound, the TGI (A498 renal) was 8.87 µM, the GI50 (SN12C renal) was 4.42 µM and the TGI (SN12C renal) was over 100 µM. The GI50 (SR leukemia) was 0.444 µM, the TGI (SR leukemia) was over 100 µM and the GI50 (SW-620 colon) was 0.889 µM. For the same compound, the TGI (SW-620 colon) was over 100 µM, the GI50 (HT29 colon) was 1.02 µM and the TGI (HT29 colon) was over 100 µM. For the same compound, the GI50 (OVCAR-8 ovarian) was 4.5 µM, the TGI (OVCAR-8 ovarian) was over 100 µM and the GI50 (SK-MEL-28 melanoma) was 9.11 µM. It also gave a TGI (SK-MEL-28 melanoma) of over 100 µM, a GI50 (A549 NSCLC) of 4.47 µM and a TGI (A549 NSCLC) of over 100 µM. It also gave a GI50 (HOP-62 NSCLC) of 2.91 µM and a TGI (HOP-62 NSCLC) of over 100 µM.
